Consider 1 compound from publication PMC10407959 (Journal of medicinal chemistry, 2023).

The target in one data set is T1, CYP1A2 (Homo sapiens, UniProt P05177).
T1 sequence (P05177 1-516): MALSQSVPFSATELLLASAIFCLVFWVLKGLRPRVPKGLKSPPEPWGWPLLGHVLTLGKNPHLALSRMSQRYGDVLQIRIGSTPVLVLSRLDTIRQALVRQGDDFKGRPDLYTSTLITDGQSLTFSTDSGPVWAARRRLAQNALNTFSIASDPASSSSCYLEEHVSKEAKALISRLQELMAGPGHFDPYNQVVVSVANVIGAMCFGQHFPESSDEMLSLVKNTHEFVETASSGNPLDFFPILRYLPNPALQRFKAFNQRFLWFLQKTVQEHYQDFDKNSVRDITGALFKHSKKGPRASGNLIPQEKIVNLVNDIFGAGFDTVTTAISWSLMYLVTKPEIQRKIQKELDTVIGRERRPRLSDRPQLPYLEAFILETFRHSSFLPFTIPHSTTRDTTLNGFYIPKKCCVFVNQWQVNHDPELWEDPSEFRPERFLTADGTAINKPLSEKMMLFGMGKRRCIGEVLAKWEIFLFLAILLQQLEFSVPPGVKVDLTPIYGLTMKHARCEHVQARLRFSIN
The settings on record: read-out: CYP1A2 (IC50); ref Wen et al. 5; cited from earlier work.

In the next data set the target is T2, hP2Y14R (Homo sapiens, UniProt Q15391).
T2 sequence (Q15391 1-338): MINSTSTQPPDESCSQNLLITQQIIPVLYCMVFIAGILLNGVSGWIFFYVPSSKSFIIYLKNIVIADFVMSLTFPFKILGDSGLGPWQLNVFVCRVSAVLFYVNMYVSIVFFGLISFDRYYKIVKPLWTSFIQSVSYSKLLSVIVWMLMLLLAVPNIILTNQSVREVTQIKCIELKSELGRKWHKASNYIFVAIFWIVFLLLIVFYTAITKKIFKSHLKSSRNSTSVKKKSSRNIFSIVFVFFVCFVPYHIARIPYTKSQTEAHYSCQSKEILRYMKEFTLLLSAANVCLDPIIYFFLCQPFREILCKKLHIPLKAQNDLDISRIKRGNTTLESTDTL
Description: cell-based.

For the next data set, the target named is CYP3A4 (Homo sapiens, UniProt P08684). The settings on record: read-out: CYP3A4 (IC50); ref Wen et al. 5; cited from earlier work.
The conditions of data set [1]: ref Wen et al. 5; cited from earlier work.
For data set [2] the following is noted: rat, 3 mg/kg, i.p.; previous data; cited from earlier work.
Another data set has as its target hERG (Homo sapiens, UniProt Q12809). The following applies: read-out: hERG, IC50; fluorescent dye binding method; ref Wen et al. 5; cited from earlier work. In general terms: hERG is a cardiac potassium channel; its block is linked to QT prolongation.
For data set [3] the following is noted: rat (r), ref Wen et al. 5; cited from earlier work.
For a further data set, the target named is CYP2C9 (Homo sapiens, UniProt P11712). The settings on record: read-out: CYP2C9 (IC50); ref Wen et al. 5; cited from earlier work.
The conditions of data set [4]: pH 7.4, pION method, determined by Jai Research Foundation; ref Wen et al. 5; cited from earlier work.
For the next data set, the target named is CYP2C19 (Homo sapiens, UniProt P33261). The settings on record: read-out: CYP2C19 (IC50); ref Wen et al. 5; cited from earlier work.
The conditions of data set [5]: mouse (m), ref Wen et al. 5; cited from earlier work.
The conditions of data set [6]: ref Wen et al. 5; cited from earlier work. This is another data set of the same source.
The target of the next data set is CYP2D6 (Homo sapiens, UniProt P10635). The settings on record: read-out: CYP2D6 (IC50); ref Wen et al. 5; cited from earlier work.

Molecules are shown by their SMILES. Read-outs that look alike come from different tables or passages of the source. Marks after values point to notes of the source that are not given here. Some results are limits rather than exact numbers.

CYP2D6, sequence (P10635 whole entry): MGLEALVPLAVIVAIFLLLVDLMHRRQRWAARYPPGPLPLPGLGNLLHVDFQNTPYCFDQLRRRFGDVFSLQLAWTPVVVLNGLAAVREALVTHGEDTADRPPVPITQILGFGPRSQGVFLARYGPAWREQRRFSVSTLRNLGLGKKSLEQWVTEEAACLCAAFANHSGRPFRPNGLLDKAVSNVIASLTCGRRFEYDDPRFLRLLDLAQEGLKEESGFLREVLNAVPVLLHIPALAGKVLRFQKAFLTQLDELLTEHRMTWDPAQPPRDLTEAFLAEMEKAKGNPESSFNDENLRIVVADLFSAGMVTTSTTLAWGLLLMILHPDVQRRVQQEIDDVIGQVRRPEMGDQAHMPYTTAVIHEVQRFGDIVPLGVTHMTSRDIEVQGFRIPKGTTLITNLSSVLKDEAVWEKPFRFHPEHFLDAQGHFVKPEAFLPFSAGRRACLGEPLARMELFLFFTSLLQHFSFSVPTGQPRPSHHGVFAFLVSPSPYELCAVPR
CYP3A4, sequence (P08684 whole entry): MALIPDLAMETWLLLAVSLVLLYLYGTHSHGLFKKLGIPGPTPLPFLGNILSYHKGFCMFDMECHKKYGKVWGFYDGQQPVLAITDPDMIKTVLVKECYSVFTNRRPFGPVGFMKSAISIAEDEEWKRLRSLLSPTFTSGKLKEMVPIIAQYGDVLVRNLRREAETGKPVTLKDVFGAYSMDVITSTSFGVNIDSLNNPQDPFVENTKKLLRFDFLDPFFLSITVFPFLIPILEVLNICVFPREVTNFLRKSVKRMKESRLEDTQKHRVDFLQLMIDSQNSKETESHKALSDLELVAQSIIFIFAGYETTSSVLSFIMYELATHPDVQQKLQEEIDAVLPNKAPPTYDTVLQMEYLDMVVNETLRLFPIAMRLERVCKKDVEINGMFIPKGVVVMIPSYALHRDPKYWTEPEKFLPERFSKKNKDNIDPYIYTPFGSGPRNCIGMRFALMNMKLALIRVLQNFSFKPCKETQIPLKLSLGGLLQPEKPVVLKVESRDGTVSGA
CYP2C9, sequence (P11712 whole entry): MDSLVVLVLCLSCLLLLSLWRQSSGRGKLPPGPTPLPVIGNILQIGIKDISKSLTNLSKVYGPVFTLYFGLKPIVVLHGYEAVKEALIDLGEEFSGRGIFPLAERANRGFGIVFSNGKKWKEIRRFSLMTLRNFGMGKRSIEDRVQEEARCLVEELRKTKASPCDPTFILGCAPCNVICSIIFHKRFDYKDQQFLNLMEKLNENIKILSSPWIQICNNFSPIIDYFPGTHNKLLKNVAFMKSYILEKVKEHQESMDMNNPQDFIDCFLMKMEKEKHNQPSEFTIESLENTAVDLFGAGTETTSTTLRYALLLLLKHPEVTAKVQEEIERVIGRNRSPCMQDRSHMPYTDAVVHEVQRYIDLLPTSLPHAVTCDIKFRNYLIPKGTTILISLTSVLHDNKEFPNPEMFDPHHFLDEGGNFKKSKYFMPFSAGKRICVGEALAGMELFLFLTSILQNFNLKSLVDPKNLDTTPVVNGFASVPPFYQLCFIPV
CYP2C19, sequence (P33261 whole entry): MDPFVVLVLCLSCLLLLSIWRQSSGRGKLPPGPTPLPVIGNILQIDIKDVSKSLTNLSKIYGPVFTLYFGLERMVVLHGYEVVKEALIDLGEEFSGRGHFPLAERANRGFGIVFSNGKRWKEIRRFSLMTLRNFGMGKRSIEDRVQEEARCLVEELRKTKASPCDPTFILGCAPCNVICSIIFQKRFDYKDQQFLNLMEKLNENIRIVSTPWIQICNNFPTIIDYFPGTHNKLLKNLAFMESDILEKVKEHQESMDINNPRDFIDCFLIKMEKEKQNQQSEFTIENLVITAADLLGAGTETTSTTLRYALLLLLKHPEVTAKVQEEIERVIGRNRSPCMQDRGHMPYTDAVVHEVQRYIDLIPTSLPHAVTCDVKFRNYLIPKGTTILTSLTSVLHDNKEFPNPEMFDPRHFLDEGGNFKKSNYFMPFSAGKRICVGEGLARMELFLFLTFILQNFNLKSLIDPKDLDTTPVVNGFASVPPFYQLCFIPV
hERG, sequence (Q12809 whole entry): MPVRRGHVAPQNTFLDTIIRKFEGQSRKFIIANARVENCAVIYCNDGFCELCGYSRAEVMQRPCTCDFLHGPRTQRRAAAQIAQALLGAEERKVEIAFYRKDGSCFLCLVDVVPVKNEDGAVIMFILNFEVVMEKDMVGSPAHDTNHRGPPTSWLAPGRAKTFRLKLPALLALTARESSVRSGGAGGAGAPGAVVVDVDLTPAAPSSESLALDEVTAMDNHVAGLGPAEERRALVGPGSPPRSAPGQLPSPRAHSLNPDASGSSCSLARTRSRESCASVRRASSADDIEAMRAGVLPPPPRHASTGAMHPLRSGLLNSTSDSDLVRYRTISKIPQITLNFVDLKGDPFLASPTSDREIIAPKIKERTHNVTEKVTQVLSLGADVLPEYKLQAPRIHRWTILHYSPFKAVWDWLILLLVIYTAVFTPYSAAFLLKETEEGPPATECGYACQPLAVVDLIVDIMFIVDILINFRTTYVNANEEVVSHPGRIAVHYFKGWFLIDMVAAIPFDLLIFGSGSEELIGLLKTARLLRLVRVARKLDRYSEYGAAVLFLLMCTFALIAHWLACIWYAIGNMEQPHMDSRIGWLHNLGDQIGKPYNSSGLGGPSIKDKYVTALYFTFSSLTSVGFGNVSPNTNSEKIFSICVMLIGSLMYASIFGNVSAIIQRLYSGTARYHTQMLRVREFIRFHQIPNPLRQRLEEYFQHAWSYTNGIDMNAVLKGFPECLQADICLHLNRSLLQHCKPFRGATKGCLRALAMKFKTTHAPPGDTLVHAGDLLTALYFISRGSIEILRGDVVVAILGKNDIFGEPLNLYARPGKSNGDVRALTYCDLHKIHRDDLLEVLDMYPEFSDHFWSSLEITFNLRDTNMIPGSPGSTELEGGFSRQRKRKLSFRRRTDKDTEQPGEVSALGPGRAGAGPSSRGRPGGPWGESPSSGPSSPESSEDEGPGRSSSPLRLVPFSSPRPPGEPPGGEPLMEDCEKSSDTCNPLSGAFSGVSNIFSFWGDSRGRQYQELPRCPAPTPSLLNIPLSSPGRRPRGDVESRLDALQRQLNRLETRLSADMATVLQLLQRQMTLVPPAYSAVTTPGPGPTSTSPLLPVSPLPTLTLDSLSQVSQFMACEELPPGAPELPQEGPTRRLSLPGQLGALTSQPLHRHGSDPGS

For `O=C(O)c1cc(-c2ccc([C@H]3C[C@H]4C[C@@H]3CN4)cc2)c2ccc(-c3ccc(C(F)(F)F)cc3)cc2c1` [2b, 4-(4-((1S,4S,5S)-2-Azabicyclo[2.2.1]heptan-5-yl)phenyl)-7-(4-(trifluoromethyl)phenyl)-2-naphthoic Acid], the IC50 on CYP1A2, at CYP3A4, on hERG, at CYP2C9, at CYP2C19 and at CYP2D6 was above 30 µM in each case. Besides, the affinity at hP2Y14R corresponds to a Ki of 0.00181 µM. For the same compound, the “simulated gastric fluid (% remaining at 120 min)” value in data set [1] is reported as 100^a %. Further, the bioavailability in data set [2] is on record as 43 %F. For the same compound, the “plasma stability (% remaining at 120 min)” value in data set [3] is on record as 82.8%; in [5], 100%. Besides, the “solubility, (μg/mL)” value in [4] was 1.90 (pH 7.4)^d μg/mL. Also, the “simulated intestinal fluid (% remaining at 120 min)” value in [6] is listed as 99.1%.
